# Data reported in US20260297085A1, “1 H-PYRROLO[2,3-B]PYRIDIN-4-YL]-2-OXOPYRROLIDINE-3-CARBONITRILE DERIVATIVES AS TYROSINE KINASE 2 (TYK2) INHIBITORS FOR THE TREATMENT OF INFLAMMATORY DISEASES” (BIOGEN MA INC., priority 2023, published 2026).
# Counter-ions that a name gives are not always drawn.
# Assays:
# [1] = molecular target: T1, human TYK2 kinase domain (JH1) (Homo sapiens, UniProt P29597); assay: JH1 biochemical assay for TYK2 (ADP-Glo kinase assay, recombinant JH1 catalytic domain, JAK3-974 peptide, 10 μM ATP)
# T1 construct: recombinantly generated catalytic kinase (also known as JH1) domain of human JAK1, JAK2, JAK3 and TYK2
# T1 sequence (P29597 897-1176 limits assumed): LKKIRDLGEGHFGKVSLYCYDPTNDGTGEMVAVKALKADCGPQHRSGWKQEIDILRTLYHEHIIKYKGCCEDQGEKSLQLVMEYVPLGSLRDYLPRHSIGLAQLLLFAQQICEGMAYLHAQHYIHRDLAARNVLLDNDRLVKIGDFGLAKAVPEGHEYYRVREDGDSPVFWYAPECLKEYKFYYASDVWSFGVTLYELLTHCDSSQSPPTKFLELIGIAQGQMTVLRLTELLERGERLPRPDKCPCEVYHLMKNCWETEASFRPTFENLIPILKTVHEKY
# Procedure, shortened: (§1)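 Compounds were titrated in 11 points of 3-fold dilution starting at 10 μM or 1 μM. Enzyme (JAK1 4 nM, JAK2 0.2 nM, JAK3 0.3 nM, TYK2 2 nM) and 50 μM peptide reacted for 100 minutes, followed by ADP-to-luminescence detection; IC50 by 4-parameter fit.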
# [2] = molecular target: T2, human JAK1 kinase domain (JH1) (Homo sapiens, UniProt P23458); assay: JH1 biochemical assay for JAK1 (ADP-Glo kinase assay, recombinant JH1 catalytic domain, JAK3-342 peptide, 35 μM ATP)
# T2 construct: recombinantly generated catalytic kinase (also known as JH1) domain of human JAK1, JAK2, JAK3 and TYK2
# T2 sequence (P23458 875-1153 limits assumed): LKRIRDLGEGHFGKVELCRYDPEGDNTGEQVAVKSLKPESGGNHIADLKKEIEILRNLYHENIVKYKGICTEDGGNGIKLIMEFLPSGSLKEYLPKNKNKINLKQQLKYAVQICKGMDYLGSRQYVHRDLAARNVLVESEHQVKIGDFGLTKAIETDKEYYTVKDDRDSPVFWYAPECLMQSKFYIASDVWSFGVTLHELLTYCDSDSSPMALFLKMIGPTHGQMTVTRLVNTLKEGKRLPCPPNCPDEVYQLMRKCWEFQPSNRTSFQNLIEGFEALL
# Procedure, shortened: as §1
# [3] = molecular target: T3, human JAK2 kinase domain (JH1) (Homo sapiens, UniProt O60674); assay: JH1 biochemical assay for JAK2 (ADP-Glo kinase assay, recombinant JH1 catalytic domain, JAK3-974 peptide, 15 μM ATP)
# T3 construct: recombinantly generated catalytic kinase (also known as JH1) domain of human JAK1, JAK2, JAK3 and TYK2
# T3 sequence (O60674 849-1124 limits assumed): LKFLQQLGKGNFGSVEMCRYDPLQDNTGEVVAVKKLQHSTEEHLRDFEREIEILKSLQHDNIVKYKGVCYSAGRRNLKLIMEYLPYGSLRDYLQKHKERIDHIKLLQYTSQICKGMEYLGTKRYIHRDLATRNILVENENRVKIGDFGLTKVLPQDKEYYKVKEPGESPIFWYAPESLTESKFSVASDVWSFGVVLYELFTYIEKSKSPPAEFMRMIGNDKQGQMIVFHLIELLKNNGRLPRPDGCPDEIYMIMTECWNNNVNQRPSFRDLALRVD
# Procedure, shortened: as §1
# [4] = molecular target: T4, human JAK3 kinase domain (JH1) (Homo sapiens, UniProt P52333); assay: JH1 biochemical assay for JAK3 (ADP-Glo kinase assay, recombinant JH1 catalytic domain, JAK3-974 peptide, 4 μM ATP)
# T4 construct: recombinantly generated catalytic kinase (also known as JH1) domain of human JAK1, JAK2, JAK3 and TYK2
# T4 sequence (P52333 822-1111 limits assumed): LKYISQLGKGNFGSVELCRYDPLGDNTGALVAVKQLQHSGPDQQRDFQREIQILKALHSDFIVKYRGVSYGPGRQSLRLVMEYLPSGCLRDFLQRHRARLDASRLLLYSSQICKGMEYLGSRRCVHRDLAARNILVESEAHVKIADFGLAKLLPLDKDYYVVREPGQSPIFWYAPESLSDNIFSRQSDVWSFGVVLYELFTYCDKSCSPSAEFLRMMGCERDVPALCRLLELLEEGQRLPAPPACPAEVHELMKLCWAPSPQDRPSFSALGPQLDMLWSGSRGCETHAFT
# Procedure, shortened: as §1
SMILES,"IC50 ([1]; JH1 kinase domain, ADP-Glo) [nM]","IC50 ([2]; JH1 kinase domain, ADP-Glo) [nM]","IC50 ([3]; JH1 kinase domain, ADP-Glo) [nM]","IC50 ([4]; JH1 kinase domain, ADP-Glo) [nM]","IC50 ([1]; TYK2 JH1, ADP-Glo) [nM]","IC50 ([2]; JAK1 JH1, ADP-Glo) [nM]","IC50 ([3]; JAK2 JH1, ADP-Glo) [nM]","IC50 ([4]; JAK3 JH1, ADP-Glo) [nM]"
"COc1cnc(-c2cc3c(N4C[C@@H](C)[C@@](C#N)(C5CC5)C4=O)ccnn3c2)cn1 [Example 132, (3R,4S)-3-cyclopropyl-1-(6-(5-methoxypyrazin-2-yl)pyrrolo[1,2-b]pyridazin-4-yl)-4-methyl-2-oxopyrrolidine-3-carbonitrile trifluoroacetate]",50 to 100,1000 to 5000,1000 to 5000,1000 to 5000,–,–,–,–
"C[C@@H]1CN(c2cc(-c3cnn(C(F)F)c3)cn3ncc(F)c23)C(=O)[C@]1(C#N)C1CC1 [Example 270, (3R,4S)-3-cyclopropyl-1-(6-(1-(difluoromethyl)-1H-pyrazol-4-yl)-3-fluoropyrazolo[1,5-a]pyridin-4-yl)-4-methyl-2-oxopyrrolidine-3-carbonitrile]",–,–,–,–,20 to 50,1000 to 5000,1000 to 5000,1000 to 5000
"Cn1cc(-c2cc3c(N4CCC(C#N)C4=O)ccnn3c2)cn1 (stereo not shown) [Example 7, 1-(6-(1-methyl-1H-pyrazol-4-yl)pyrrolo[1,2-b]pyridazin-4-yl)-2-oxopyrrolidine-3-carbonitrile]",> 100,> 10000,5000 to 10000,5000 to 10000,–,–,–,–
"C[C@@H]1CN(c2ccnn3cc(-c4cnn5c4CCCC5)cc23)C(=O)[C@]1(C#N)C1CC1 [Example 173, (3R,4S)-3-cyclopropyl-4-methyl-2-oxo-1-(6-(4,5,6,7-tetrahydropyrazolo[1,5-a]pyridin-3-yl)pyrrolo[1,2-b]pyridazin-4-yl)pyrrolidine-3-carbonitrile]",5 to 20,100 to 1000,100 to 1000,100 to 1000,–,–,–,–
"C[C@@H]1CN(c2ccnn3cc(-c4cccc5cnn(C)c45)cc23)C(=O)[C@]1(C#N)C1CC1 [Example 78, (3R,4S)-3-cyclopropyl-4-methyl-1-(6-(1-methyl-1H-indazol-7-yl)pyrrolo[1,2-b]pyridazin-4-yl)-2-oxopyrrolidine-3-carbonitrile]",> 100,> 10000,> 10000,> 10000,–,–,–,–
"C[C@@H]1CN(c2ccnn3cc(-c4cc(C(F)(F)F)ncn4)cc23)C(=O)[C@]1(C#N)C1CC1 [Example 121, (3R,4S)-3-cyclopropyl-4-methyl-2-oxo-1-(6-(6-(trifluoromethyl)pyrimidin-4-yl)pyrrolo[1,2-b]pyridazin-4-yl)pyrrolidine-3-carbonitrile trifluoroacetate]",> 100,1000 to 5000,5000 to 10000,1000 to 5000,–,–,–,–
"Cc1cnn(-c2cc3c(N4C[C@@H](C)[C@@](C#N)(C5CC5)C4=O)ccnn3c2)n1 [Example 343, (3R,4S)-3-cyclopropyl-4-methyl-1-(6-(4-methyl-2H-1,2,3-triazol-2-yl)pyrrolo[1,2-b]pyridazin-4-yl)-2-oxopyrrolidine-3-carbonitrile]",–,–,–,–,> 100,> 10000,> 10000,> 10000
"C[C@@H]1CN(c2ccnn3cc(-c4ccc(N(C)C(=O)OC(C)(C)C)nc4)cc23)C(=O)[C@]1(C#N)C1CC1 [Example 95, tert-butyl (5-(4-((3R,4S)-3-cyano-3-cyclopropyl-4-methyl-2-oxopyrrolidin-1-yl)pyrrolo[1,2-b]pyridazin-6-yl)pyridin-2-yl)(methyl)carbamate]",5 to 20,100 to 1000,100 to 1000,100 to 1000,–,–,–,–
"C[C@@H]1CN(c2nc(-c3cnn(C)c3)cc3nccn23)C(=O)[C@]1(C#N)C1CC1 [Example 269, (3R,4S)-3-cyclopropyl-4-methyl-1-(7-(1-methyl-1H-pyrazol-4-yl)imidazo[1,2-c]pyrimidin-5-yl)-2-oxopyrrolidine-3-carbonitrile]",–,–,–,–,> 100,1000 to 5000,5000 to 10000,1000 to 5000
"CC(=O)Nc1cncc(-c2cn3nccc3c(N3C[C@@H](C)[C@@](C#N)(C4CC4)C3=O)n2)c1 [Example 249, N-(5-(4-((3R,4S)-3-cyano-3-cyclopropyl-4-methyl-2-oxopyrrolidin-1-yl)pyrazolo[1,5-a]pyrazin-6-yl)pyridin-3-yl)acetamide trifluoroacetate]",–,–,–,–,> 100,> 10000,> 10000,5000 to 10000
